Measurements: patent US7084161B2, “Method for treating inflammatory diseases or conditions” (SmithKlineBeecham Corporation, priority 2000, dated 2006)

Tested on: LPS-induced INOS activity in J774 cells
Experiment: LPS-induced iNOS activity in J774 cells (DAF-2 fluorescence)
Type: cell-based, mouse
Conditions: pre-treatment 6 hours prior to and 24 hours subsequent to LPS (typically 1 ug/ml), at sub-nanomolar—nanomolar concentrations
Experimental: In this assay system, lipopolysaccharide (LPS) was used to induce the expression of INOS in the mouse macrophage cell line, J774. […] This reduction in INOS activity correlated with a reduction in LPS-induced INOS mRNA expression.
Specifically, LPS-induced INOS activity was measured using the following assay conditions. J774 cells were seeded at a density of […] per well, in a black, clear-bottomed, 96 well plate, 24 hours prior to use. The cell culture and the drug dilutions were carried out in complete media, which consisted of DMEM (Dulbecco's modification of Eagle's medium) containing foetal calf serum (10%), glutamine (2 mM), penicillin (100 u/ml) and streptomycin (100 μg/ml). The J774 cells were pre-treated with the PPAR delta activators A and B, or vehicle, for 6 hours prior to, and for 24 hours subsequent to the addition of LPS (typically, a concentration of 1 ug/ml of LPS was used). Twenty-four hours after the addition of LPS, INOS activity was measured by the following method. […] After incubation at 37° C. for 3 hours, fluorescence from each well was measured at an excitation wavelength of 485 nm, and an emission wavelength of 530 nm. The ability of LPS to induce INOS activity, in the presence and absence of PPAR delta activators, was then calculated. […]

Structure (SMILES) | inhibition of LPS-induced INOS activity
Cc1cc(SCc2sc(-c3ccc(C(F)(F)F)c(F)c3)nc2C)ccc1OCC(=O)O [Compound B, 2-{2-methyl-4-[({4-methyl-2-[3-fluoro-4-(trifluoromethyl)phenyl]-1,3-thiazol-5-yl}methyl)sulfanyl]phenoxy}acetic Acid] | marked inhibition
Cc1cc(SCc2sc(-c3ccc(C(F)(F)F)cc3)nc2C)ccc1OCC(=O)O [Compound A, 2-{2-methyl-4-[({4-methyl-2-[4-(trifluoromethyl)phenyl]-1,3-thiazol-5-yl}methyl)sulfanyl]phenoxy}acetic Acid] | marked inhibition
